Data from paper PMC10698726 (Molecular Pharmaceutics, 2023).
Where two headings read alike, the source gives them in different places.

Columns and labels:
OCT2 = target: T1, OCT2 (Homo sapiens, UniProt O15244); assay: Inhibition of model substrate uptake in OCT2-overexpressing HEK293 cells
T1 sequence (O15244 1-555): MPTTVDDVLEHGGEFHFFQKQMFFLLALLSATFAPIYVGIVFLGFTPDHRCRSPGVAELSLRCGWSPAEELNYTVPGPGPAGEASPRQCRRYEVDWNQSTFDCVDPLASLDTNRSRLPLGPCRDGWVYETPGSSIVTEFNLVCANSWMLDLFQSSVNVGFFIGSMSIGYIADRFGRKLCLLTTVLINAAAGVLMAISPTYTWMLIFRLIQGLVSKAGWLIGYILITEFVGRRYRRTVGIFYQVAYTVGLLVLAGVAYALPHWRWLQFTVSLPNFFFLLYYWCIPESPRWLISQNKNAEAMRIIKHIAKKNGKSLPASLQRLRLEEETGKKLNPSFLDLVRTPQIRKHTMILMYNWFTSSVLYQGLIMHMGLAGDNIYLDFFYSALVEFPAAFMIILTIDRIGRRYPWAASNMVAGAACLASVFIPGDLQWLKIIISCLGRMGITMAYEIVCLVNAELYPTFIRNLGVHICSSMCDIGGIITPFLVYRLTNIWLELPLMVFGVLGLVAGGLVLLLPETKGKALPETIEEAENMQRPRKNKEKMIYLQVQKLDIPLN
Description: (§1) All experiments were carried out in transporter-overexpressing HEK293 cells. OCT1-, OCT2-, NET-, DAT-, and SERT-overexpressing cells as well as the empty-vector transfected control cell line were generated as described earlier,[26]−[28] whereas the OCT3-overexpressing HEK293 cells were generous gift of from Drs. Koepsell and Gorbulev (University of Würzburg, Germany). All cells were cultivated in Dulbecco’s modified Eagle’s medium (DMEM) supplemented with 10% (v/v) FCS, penicillin (100 U/mL), and streptomycin (100 μg/mL) and kept in culture for no longer than 30 passages.
(§2) As for the transport experiments, 300,000 HEK293 cells were plated in poly-D-lysine-coated 24-well plates 2 days ahead of the experiment. On every plate, two wells of empty vector (EV)-transfected cells were used as a control to account for the passive influx of the model substrate, and two wells of transporter-overexpressing cells were used to determine the noninhibited uptake of the model substrate. Cells were initially washed once with 37 °C HBSS+ and then incubated with 2 μM model substrate (0.2 μM for MPP^+ uptake by MATs) with and without 20 μM inhibitor for 5 min. For concentration-dependent inhibition experiments, the cells were incubated with increasing inhibitor concentrations. The incubation was terminated by aspiration of the buffer before cells were washed twice with ice-cold HBSS+ and lysed in 80% acetonitrile. Cell lysates were transferred into a black 96-well plate for the fluorescence measurement of ASP^+ or used for sample preparation for LC–MS/MS analysis. […] Fluorescence quantification was performed in technical duplicates.
(§3) Transporter-mediated net uptake was calculated as the difference between uptake in transporter-overexpressing cells and that in the empty-vector-transfected control. […] Vmax is the maximum transport velocity, while Km is defined as the substance concentration that is required to reach half of vmax. The ratio of vmax over Km is termed intrinsic clearance Clint. For inhibition experiments, the transport activity was calculated by using the following equation [drawing 1]
(§4) SubstrateEV refers to the passive uptake of model substrates into the control cells and substratenoninhibited is the uptake in transporter-overexpressing cells without the presence of any inhibitor. The percent inhibition values are then calculated as described in the following [drawing 2]
(§5) For concentration inhibition experiments, the transporter activity was plotted against the log10 of inhibitor concentrations, and the data were fitted by the following equation to determine IC50 values [drawing 3]
(§6) Y refers to the transporter activity, whereas Ymax is the maximum and Ymin is the minimal transporter activity. X is the log10 of inhibitor concentrations, IC50 is the half-maximal inhibitory concentration, and hill slope is the slope factor.

OCT3 = target: T2, OCT3 (Homo sapiens, UniProt O75751); assay: Inhibition of model substrate uptake in OCT3-overexpressing HEK293 cells; type: cell-based; details: for (S)-Zolmitriptan inhibition [%]: OCT3
T2 construct: expressed in transfected cells; host or cells: HEK293
T2 sequence (O75751 1-556): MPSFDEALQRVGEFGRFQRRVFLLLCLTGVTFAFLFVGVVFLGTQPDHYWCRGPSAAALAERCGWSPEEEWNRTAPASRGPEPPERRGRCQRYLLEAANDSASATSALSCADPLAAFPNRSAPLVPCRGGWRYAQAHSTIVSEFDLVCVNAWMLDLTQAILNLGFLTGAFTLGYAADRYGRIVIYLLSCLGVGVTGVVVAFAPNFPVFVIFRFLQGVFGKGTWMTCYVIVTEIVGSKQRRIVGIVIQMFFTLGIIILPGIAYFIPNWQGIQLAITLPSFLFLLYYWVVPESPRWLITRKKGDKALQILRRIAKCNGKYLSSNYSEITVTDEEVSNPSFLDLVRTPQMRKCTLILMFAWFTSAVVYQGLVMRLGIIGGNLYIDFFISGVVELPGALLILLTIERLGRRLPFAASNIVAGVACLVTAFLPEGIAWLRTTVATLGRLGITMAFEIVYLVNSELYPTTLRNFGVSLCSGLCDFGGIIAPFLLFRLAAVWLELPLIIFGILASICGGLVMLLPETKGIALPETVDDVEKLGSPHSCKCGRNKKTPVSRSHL
Description: as §1, §2, §3, §4, §5, §6

OCT1 = target: T3, OCT1 (Homo sapiens, UniProt O15245); assay: Inhibition of model substrate uptake in OCT1-overexpressing HEK293 cells; type: cell-based; set-up: expressed in transfected cells; host or cells: HEK293; details: for IC50: read-out: IC50
T3 sequence (O15245 1-554): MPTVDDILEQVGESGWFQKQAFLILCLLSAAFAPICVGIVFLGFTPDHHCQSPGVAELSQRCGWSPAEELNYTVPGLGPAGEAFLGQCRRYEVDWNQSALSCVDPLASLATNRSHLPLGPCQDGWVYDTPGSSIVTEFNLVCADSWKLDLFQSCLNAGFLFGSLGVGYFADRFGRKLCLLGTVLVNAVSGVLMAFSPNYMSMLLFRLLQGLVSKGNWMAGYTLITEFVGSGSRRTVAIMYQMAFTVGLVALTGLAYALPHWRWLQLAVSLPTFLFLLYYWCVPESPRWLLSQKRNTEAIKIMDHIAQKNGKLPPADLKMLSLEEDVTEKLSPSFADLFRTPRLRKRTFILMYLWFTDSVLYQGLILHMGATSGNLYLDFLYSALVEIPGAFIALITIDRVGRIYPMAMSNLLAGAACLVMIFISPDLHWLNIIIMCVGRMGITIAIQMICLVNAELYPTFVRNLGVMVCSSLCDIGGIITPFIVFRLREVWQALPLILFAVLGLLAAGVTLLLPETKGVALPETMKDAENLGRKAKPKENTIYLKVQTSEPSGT
Description: Koepsell and Gorbulev (University of Würzburg, Germany).
Fluorescence quantification was performed in technical duplicates.

[1] = OCT2, 20 μM inhibitor, 2 μM (S,S)-ethambutol, 5 min
[2] = HEK293, 5 min, read-out: (S)-Zolmitriptan inhibition [%], OCT3, 20 μM inhibitor, 2 μM (S)-zolmitriptan, 5 min
[3] = HEK293, 5 min, read-out: (S,S)-Ethambutol inhibition [%], OCT3, 20 μM inhibitor, 2 μM (S,S)-ethambutol, 5 min
[4] = human, OCT2-overexpressing HEK293 cells, pH 7.4, probe (S,S)-ethambutol (2 μM), (S,S)-Ethambutol inhibition [%], OCT2, 20 μM inhibitor, 2 μM (S,S)-ethambutol, 5 min
[5] = human, OCT2-overexpressing HEK293 cells, pH 7.4, probe ASP+ (2 μM), ASP+ inhibition [%], OCT2, 20 μM inhibitor, 2 μM ASP+, 5 min
[6] = human, OCT2-overexpressing HEK293 cells, pH 7.4, probe N-ethyllidocaine (2 μM), N-Ethyllidocaine inhibition [%], OCT2, 20 μM inhibitor, 2 μM N-ethyllidocaine, 5 min
[7] = HEK293, OCT3, 20 μM inhibitor, 2 μM ASP+, 5 min, read-out: ASP+ inhibition [%]
[8] = human, OCT1-overexpressing HEK293 cells, pH 7.4, probe (S,S)-ethambutol (2 μM), (S,S)-Ethambutol inhibition [%], OCT1, 20 μM inhibitor, 2 μM (S,S)-ethambutol, 5 min
[9] = human, OCT1-overexpressing HEK293 cells, pH 7.4, probe ASP+ (2 μM), OCT1, 20 μM inhibitor, 2 μM ASP+, 5 min, mean of three experiments, read-out: ASP+ inhibition [%]
[10] = human, OCT1-overexpressing HEK293 cells, pH 7.4, probe sumatriptan (2 μM), OCT1, 20 μM inhibitor, 2 μM sumatriptan, 5 min, read-out: Sumatriptan inhibition [%]
[11] = 20 μM inhibitor, 2 μM (S)-zolmitriptan, 5 min
[12] = OCT1, 20 μM inhibitor, 2 μM ASP+, 5 min, mean of three experiments
[13] = IC50, OCT2, Table S5, 2 μM ASP+ as model substrate, 5 min
[14] = OCT2, 20 μM inhibitor, 2 μM N-ethyllidocaine, 5 min
[15] = HEK293, 5 min, read-out: (S)-Zolmitriptan inhibition [%]
[16] = HEK293, 5 min, read-out: (S,S)-Ethambutol inhibition [%]

| SMILES | inhibition at 20 µM (OCT3; [2]) | inhibition at 20 µM (OCT3; [3]) | inhibition at 5 min, 20 μM (OCT2; [4]) | inhibition at 5 min, 20 μM (OCT2; [5]) | inhibition at 5 min, 20 μM (OCT2; [6]) | inhibition at 20 µM (OCT3; [7]) | inhibition at 5 min, 20 μM (OCT1; [8]) | inhibition at 5 min, 20 μM (OCT1; [9]) | inhibition at 5 min, 20 μM (OCT1; [10]) | other results |
| --- | --- | --- | --- | --- | --- | --- | --- | --- | --- | --- |
| O=C(OC1C[N+]2(CCCOc3ccccc3)CCC1CC2)C(O)(c1cccs1)c1cccs1 [(R)-Aclidinium] | 43.3% | 62.8% |  |  |  |  |  |  |  | (S,S)-Ethambutol inhibition [%] (OCT2; [1]): -0.8%; inhibition at 5 min, 20 μM (OCT2; human, pH 7.4, ASP+ inhibition [%], OCT2, 20 μM inhibitor, 2 μM ASP+, 5 min): 108%; inhibition at 5 min, 20 μM (OCT2; human, pH 7.4, N-Ethyllidocaine inhibition [%], OCT2, 20 μM inhibitor, 2 μM N-ethyllidocaine, 5 min): 69.1%; inhibition at 20 µM (OCT3; HEK293, read-out: ASP+ inhibition [%], OCT3, 20 μM inhibitor, 2 μM ASP+, 5 min): 37.1%; inhibition at 5 min, 20 μM (OCT1; human, pH 7.4, (S,S)-Ethambutol inhibition [%], OCT1, 20 μM inhibitor, 2 μM (S,S)-ethambutol, 5 min): 98.8%; inhibition at 5 min, 20 μM (OCT1; human, pH 7.4, OCT1, 20 μM inhibitor, 2 μM ASP+, 5 min, mean of three experiments, read-out: ASP+ inhibition [%]): 71.6%; inhibition at 5 min, 20 μM (OCT1; human, pH 7.4, OCT1, 20 μM inhibitor, 2 μM sumatriptan, 5 min, read-out: Sumatriptan inhibition [%]): 93.6% |
| CCCCN1CCCC[C@@H]1C(=O)Nc1c(C)cccc1C [(R)-Bupivacaine] | 51.8% | 50.3% | 56.3% | 59.5% | 64.4% | 31.4% | 63.8% | 32.8% | 59.2% | IC50 (OCT2; IC50 [μM], OCT2, Table 1): 21.4 µM; IC50 (OCT1; OCT1, Table 1): 10.2 µM |
| COc1ccccc1OCCNC[C@@H](O)COc1cccc2[nH]c3ccccc3c12 [(R)-Carvedilol] | 37.9% | 48.6% | 13.5% | 99.6% | 58.2% | 23.5% | 100% | 76.9% | 96.6% |  |
| N[C@@H]1CONC1=O [(R)-Cycloserine] |  | 7.4% |  | 12.3% | 13.6% | 17.8% |  |  | 28% | (S,S)-Ethambutol inhibition [%] (OCT2; [1]): 5.0%; (S)-Zolmitriptan inhibition [%] (OCT3; [11]): -0.4%; (S,S)-Ethambutol inhibition [%] (OCT1; OCT1, 20 μM inhibitor, 2 μM (S,S)-ethambutol, 5 min): 17.6%; ASP+ inhibition [%] (OCT1; [12]): -0.8% |
| C#CCN(C)[C@H](C)Cc1ccccc1 [(R)-Deprenyl] |  |  |  |  |  | 12.6% |  |  |  | IC50 (OCT2; [13]): 2.4 µM; ASP+ inhibition [%] (OCT2; OCT2, 20 μM inhibitor, 2 μM ASP+, 5 min): 101.0%; N-Ethyllidocaine inhibition [%] (OCT2; [14]): 52.3%; inhibition at 20 µM (OCT3; [15]): 18%; inhibition at 20 µM (OCT3; [16]): 24.2%; ASP+ inhibition [%] (OCT1; [12]): 21.6%; Sumatriptan inhibition [%] (OCT1; human, pH 7.4): 62.3% |
| CN(C)CCO[C@](C)(c1ccccc1)c1ccccn1 [(R)-Doxylamine] | 17.7% | 23.4% | 26.2% | 73.2% |  | 12.2% | 96% | 63.6% | 90.8% | N-Ethyllidocaine inhibition [%] (OCT2; [14]): -13.8%; IC50 (OCT1; OCT1, Table S5, 2 μM ASP+ or ethambutol as model substrate, 5 min): 22.3 µM |
| OC[C@H](O)CN1CCN(c2ccccc2)CC1 [(R)-Dropropizine] |  | 5.8% | 28% | 40.8% | 8% | 26.4% | 30.1% | 26.2% | 41% | IC50 (OCT2; [13]): 80.6 µM; selectivity ratio at 5 min (OCT2; human, OCT2-overexpressing HEK293 cells, pH 7.4): 1.4; (S)-Zolmitriptan inhibition [%] (OCT3; [11]): -30.2% |
| CNCC[C@@H](Oc1cccc2ccccc12)c1cccs1 [(R)-Duloxetine] |  |  | 33.2% | 53.3% | 50.1% |  | 85.1% | 41.3% | 86.8% | IC50 (OCT2; IC50): 25.3 µM; inhibition at 20 µM (OCT3; [15]): 1.6%; inhibition at 20 µM (OCT3; [16]): 16.7%; inhibition at 20 µM (OCT3; HEK293, read-out: ASP+ inhibition [%]): 3.8% |
